Measurements: ChEMBL document CHEMBL2146429, “Potassium channel modulators as possible treatment for pain: patent highlight” (ACS Med Chem Lett, 2012)

Target: Voltage-gated potassium channel, KQT; KCNQ2(Kv7.2)/KCNQ3(Kv7.3) (Homo sapiens, UniProt O43525+O43526)
Assay: Activation of KCNQ2/Q3
Assay type: protein-complex assay

Chain of Voltage-gated potassium channel, KQT; KCNQ2(Kv7.2)/KCNQ3(Kv7.3) (O43526 whole entry): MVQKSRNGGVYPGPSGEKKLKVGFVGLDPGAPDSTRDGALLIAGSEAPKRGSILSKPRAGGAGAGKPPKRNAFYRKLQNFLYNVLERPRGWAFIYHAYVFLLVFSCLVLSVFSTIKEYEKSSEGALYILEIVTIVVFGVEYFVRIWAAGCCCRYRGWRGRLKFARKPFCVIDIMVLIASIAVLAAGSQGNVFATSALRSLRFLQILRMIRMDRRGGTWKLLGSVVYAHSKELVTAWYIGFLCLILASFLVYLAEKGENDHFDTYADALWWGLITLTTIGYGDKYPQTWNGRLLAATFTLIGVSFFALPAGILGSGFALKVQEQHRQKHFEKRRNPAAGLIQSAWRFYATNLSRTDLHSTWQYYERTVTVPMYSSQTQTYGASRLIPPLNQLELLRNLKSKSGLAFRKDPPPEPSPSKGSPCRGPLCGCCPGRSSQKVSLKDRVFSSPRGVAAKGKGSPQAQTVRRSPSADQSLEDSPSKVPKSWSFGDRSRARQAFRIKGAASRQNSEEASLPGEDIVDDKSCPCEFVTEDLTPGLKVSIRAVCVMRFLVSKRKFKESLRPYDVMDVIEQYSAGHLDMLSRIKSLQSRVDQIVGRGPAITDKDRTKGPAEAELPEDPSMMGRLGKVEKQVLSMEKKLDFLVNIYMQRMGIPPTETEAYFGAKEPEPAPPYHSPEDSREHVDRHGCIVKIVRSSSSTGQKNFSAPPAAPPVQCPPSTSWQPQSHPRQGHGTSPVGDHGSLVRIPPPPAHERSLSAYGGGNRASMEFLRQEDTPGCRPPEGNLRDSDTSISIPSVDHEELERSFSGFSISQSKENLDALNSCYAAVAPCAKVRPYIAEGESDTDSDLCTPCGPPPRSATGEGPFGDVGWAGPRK
Chain of Voltage-gated potassium channel, KQT; KCNQ2(Kv7.2)/KCNQ3(Kv7.3) (O43525 whole entry): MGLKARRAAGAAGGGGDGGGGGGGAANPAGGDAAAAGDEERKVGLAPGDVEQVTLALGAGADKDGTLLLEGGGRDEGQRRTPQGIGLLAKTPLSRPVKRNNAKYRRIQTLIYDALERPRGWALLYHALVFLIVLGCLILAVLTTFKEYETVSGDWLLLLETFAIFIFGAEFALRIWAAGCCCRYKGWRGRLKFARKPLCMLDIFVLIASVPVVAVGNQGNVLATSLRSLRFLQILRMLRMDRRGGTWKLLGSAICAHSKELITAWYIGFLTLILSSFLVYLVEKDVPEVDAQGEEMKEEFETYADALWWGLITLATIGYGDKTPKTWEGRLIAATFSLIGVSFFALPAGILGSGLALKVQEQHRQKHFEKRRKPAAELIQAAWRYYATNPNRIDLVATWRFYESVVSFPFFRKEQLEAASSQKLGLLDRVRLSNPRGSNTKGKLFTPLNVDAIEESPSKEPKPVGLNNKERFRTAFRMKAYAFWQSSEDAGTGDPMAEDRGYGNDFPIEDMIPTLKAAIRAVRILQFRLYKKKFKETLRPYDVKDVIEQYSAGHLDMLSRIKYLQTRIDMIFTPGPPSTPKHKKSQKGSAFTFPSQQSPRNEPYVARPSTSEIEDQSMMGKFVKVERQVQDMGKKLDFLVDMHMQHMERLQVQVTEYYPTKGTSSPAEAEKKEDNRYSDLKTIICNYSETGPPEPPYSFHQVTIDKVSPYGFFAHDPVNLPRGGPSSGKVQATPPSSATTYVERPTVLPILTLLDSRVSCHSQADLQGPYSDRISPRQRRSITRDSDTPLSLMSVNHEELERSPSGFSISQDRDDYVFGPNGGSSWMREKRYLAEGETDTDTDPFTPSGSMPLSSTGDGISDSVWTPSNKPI

| EC50 | Compound |
| --- | --- |
| < 500 nM | CC(C)(C)CC(=O)Nc1nn2cccnc2c1-c1ccc(OC(F)(F)F)cc1 |
| < 1000 nM | CC(C)(C)CC(=O)Nc1nn2cccnc2c1-c1ccc(F)cc1 |
| < 100 nM | Cc1cnc2c(Cc3ccc(F)cc3)c(NC(=O)CC3CCCC3)nn2c1 |
